Laboratory results: ChEMBL document CHEMBL6121014, “Novel α-mangostin derivatives as promising antiviral agents: Isolation, synthesis, and evaluation against chikungunya virus” (Eur J Med Chem, 2025)
Calls of active or inactive are those of the source. The rule behind the calls is not given here.

Assays:
Vero = experiment: (§1) Cytotoxicity against green monkey Vero cells assessed as reduction in cell viability at 24 to 48 hrs by MTT assay; format: toxicity, cell-based; design: Activity: concentration or dose not given beside the values; details: chlorocebus sabaeus, vero; time 24-48 hrs
Chikungunya virus [1] = experiment: Antiviral activity against CHIKV infected in green monkey Vero cells assessed as reduction in viral titer at 50 uM pretreated with compound for 24 hrs followed by viral infection by foci forming unit assay (reference value: 8.48 log10FFU/ml); format: functional
Chikungunya virus [2] = experiment: Antiviral activity against CHIKV infected in green monkey Vero cells assessed as reduction in viral titer at 25 uM pretreated with compound for 24 hrs followed by viral infection by foci forming unit assay (reference value: 8.48 log10FFU/ml); format: functional
[3] = Selectivity ratio of IC50 for antiviral activity against CHIKV infected in green monkey Vero cells assessed as reduction in viral titer pretreated the cells with viral infection for 1 hr followed by compound addition and measured after 24 hrs by Foci forming unit assay to CC50 for cytotoxicity against green monkey Vero cells; format: toxicity, cell-based
Chikungunya virus [4] = experiment: Antiviral activity against CHIKV infected in green monkey Vero cells assessed as reduction in viral titer at 12.5 to 25 uM pretreated the cells with viral infection for 1 hr followed by compound addition and measured after 24 hrs by Foci forming unit assay (reference value: 8.55 log10FFU/ml); format: functional; details: dose 12.5-25 µM
Chikungunya virus [5] = experiment: Antiviral activity against CHIKV infected in green monkey Vero cells assessed as reduction in viral titer pretreated the cells with viral infection for 1 hr followed by compound addition and measured after 24 hrs by Foci forming unit assay; format: functional, organism-based
[6] = as §1; format: toxicity, cell-based; design: Activity: concentration or dose not given beside the values; details: chlorocebus sabaeus, Vero cells; time 24-48 hrs
Chikungunya virus [7] = experiment: Antiviral activity against CHIKV infected in green monkey Vero cells assessed as reduction in viral titer pretreated with compound for 24 hrs followed by viral infection by Foci forming unit assay; format: functional, organism-based
Chikungunya virus [8] = experiment: Antiviral activity against CHIKV infected in green monkey Vero cells assessed as inhibition of infectious virus preincubated the cells for 45 mins followed by compound addition and measured after 1 to 6 hrs post infection by time of addition assay; format: functional, organism-based; details: time 1-6 hrs
Chikungunya virus [9] = experiment: Antiviral activity against CHIKV infected in green monkey Vero cells assessed as reduction in viral titer at 3.125 uM pretreated the cells with viral infection for 1 hr followed by compound addition and measured after 24 hrs by Foci forming unit assay (reference value: 8.55 log10FFU/ml); format: functional
Chikungunya virus [10] = experiment: Antiviral activity against CHIKV infected in green monkey Vero cells assessed as inhibition of viral entry by entry assay; format: functional, organism-based
Chikungunya virus [11] = experiment: Antiviral activity against CHIKV infected in green monkey Vero cells assessed as inhibition of infectious virus preincubated the cells for 45 mins followed by compound addition and measured after 5 to 6 hrs post infection by time of addition assay; format: functional; design: scale not given: the % may be the effect or the level left; details: time 5-6 hrs
Chikungunya virus [12] = experiment: Antiviral activity against CHIKV infected in green monkey Vero cells assessed as reduction in viral titer at 6.25 uM pretreated with compound for 24 hrs followed by viral infection by Foci forming unit assay (reference value: 8.81 log10FFU/ml); format: functional, organism-based
Chikungunya virus [13] = experiment: Antiviral activity against CHIKV infected in green monkey Vero cells assessed as reduction in viral titer at 50 uM pretreated with compound for 24 hrs followed by viral infection by Foci forming unit assay (reference value: 8.81 log10FFU/ml); format: functional
Chikungunya virus [14] = experiment: Antiviral activity against CHIKV infected in green monkey Vero cells assessed as reduction in viral titer at 1.56 uM pretreated the cells with viral infection for 1 hr followed by compound addition and measured after 24 hrs by Foci forming unit assay (reference value: 8.55 log10FFU/ml); format: functional
Chikungunya virus [15] = experiment: Antiviral activity against CHIKV infected in green monkey Vero cells assessed as inhibition of viral post entry by entry bypass assay; format: functional, organism-based
Chikungunya virus [16] = experiment: Antiviral activity against CHIKV infected in green monkey Vero cells assessed as reduction in viral titer at 6.25 uM pretreated with compound for 24 hrs followed by viral infection by Foci forming unit assay (reference value: 8.55 log10FFU/ml); format: functional

SMILES: COc1c(OCc2cn(-c3ccc(F)c(Cl)c3)nn2)cc2oc3cc4c(c(O)c3c(=O)c2c1CC=C(C)C)C=CC(C)(C)O4
- Activity (Vero): > 90%

SMILES: COc1c(OCC(=O)N2CCN(S(=O)(=O)c3ccc(C(F)(F)F)cc3)CC2)cc2oc3cc4c(c(O)c3c(=O)c2c1CC=C(C)C)C=CC(C)(C)O4
- Activity (Chikungunya virus [1]): ~7.29 log10FFU/ml
- Activity (Chikungunya virus [2]): ~7.29 log10FFU/ml
- selectivity ratio at 24 h [3]: 25
- Activity (Chikungunya virus [4]): 7.4 log10FFU/ml
- IC50 (Chikungunya virus [5]): 6.41 µM
- Activity (Vero): > 90%
- CC50 [6]: 160 µM
- IC50 (Chikungunya virus [7]): 6.96 µM

SMILES: O=c1c2cc(O)c(O)cc2oc2cc(O)cc(O)c12
- Activity (Vero): > 90%

SMILES: COc1c(OCC#Cc2ccc(O)cc2)cc2oc3cc4c(c(O)c3c(=O)c2c1CC=C(C)C)C=CC(C)(C)O4
- Activity (Chikungunya virus [8]): Active
- Activity (Vero): > 90%

SMILES: C=C(C)C1Cc2c(cc3oc4cc(O)c(OC)c(CC=C(C)C)c4c(=O)c3c2O)O1 (configuration not stated) [MANGOSTENONE F]
- selectivity ratio at 24 h [3]: 6.54
- Activity (Chikungunya virus [9]): 7.42 log10FFU/ml
- IC50 (Chikungunya virus [5]): 1.96 µM
- Activity (Vero): > 90%
- CC50 [6]: 12.8 µM
- IC50 (Chikungunya virus [7]): 21.8 µM

SMILES: COc1c(OCc2cn(-c3cc(Cl)ccc3Cl)nn2)cc2oc3cc4c(c(O)c3c(=O)c2c1CC=C(C)C)C=CC(C)(C)O4
- Activity (Chikungunya virus [10]): Active; Largest Inhibitory Effect Was Observed
- Activity (Chikungunya virus [8]): Active
- Activity (Chikungunya virus [11]): >90%
- selectivity ratio at 24 h [3]: 76
- IC50 (Chikungunya virus [5]): 1.95 µM
- Activity (Vero): > 90%
- CC50 [6]: 148 µM

SMILES: COc1c(O)cc2oc3cc(O)c4c(c3c(=O)c2c1CC=C(C)C)OC(C)(C)CC4
- Activity (Chikungunya virus [12]): Active
- Activity (Chikungunya virus [13]): 7.62 log10FFU/ml
- selectivity ratio at 24 h [3]: 4.01
- Activity (Chikungunya virus [9]): 7.39 log10FFU/ml
- IC50 (Chikungunya virus [5]): 29.7 µM
- Activity (Vero): > 90%
- CC50 [6]: 119 µM

SMILES: COc1c(O)cc2oc3cc4c(c(O)c3c(=O)c2c1CC=C(C)C)C=CC(C)(C)O4 [MANGOSTANIN]
- selectivity ratio at 24 h [3]: 5.55
- Activity (Chikungunya virus [9]): 6.42 log10FFU/ml
- Activity (Chikungunya virus [14]): 7.47 log10FFU/ml
- IC50 (Chikungunya virus [5]): 1.02 µM
- Activity (Vero): > 90%
- CC50 [6]: 6.68 µM

SMILES: COc1c(OCc2cn(-c3c(C)cccc3C)nn2)cc2oc3cc4c(c(O)c3c(=O)c2c1CC=C(C)C)C=CC(C)(C)O4
- Activity (Chikungunya virus [15]): Active
- Activity (Vero): > 90%

SMILES: O=c1cc(-c2ccc(O)c(O)c2)oc2c(O)c(O)cc(O)c12 [HYPOLAETIN]
- Activity (Vero): > 90%

SMILES: COc1c(OCC(=O)N2CCN(S(=O)(=O)c3ccc(C#N)cc3)CC2)cc2oc3cc4c(c(O)c3c(=O)c2c1CC=C(C)C)C=CC(C)(C)O4
- selectivity ratio at 24 h [3]: 119
- Activity (Chikungunya virus [9]): 7.44 log10FFU/ml
- IC50 (Chikungunya virus [5]): 1.88 µM
- Activity (Vero): > 90%
- CC50 [6]: 223 µM

SMILES: COc1c(O)cc2oc3cc(O)c(CC=C(C)C)c(O)c3c(=O)c2c1CC=C(C)C [MANGOSTIN]
- Activity (Chikungunya virus [9]): 7.37 log10FFU/ml
- IC50 (Chikungunya virus [5]): 2.2 µM
- Activity (Vero): > 90%
- CC50 [6]: 15.4 µM
- Activity (Chikungunya virus [16]): 7.28 log10FFU/ml

SMILES: COc1c(OCC#Cc2ccc(C(C)=O)cc2)cc2oc3cc4c(c(O)c3c(=O)c2c1CC=C(C)C)C=CC(C)(C)O4
- Activity (Chikungunya virus [10]): Active
- selectivity ratio at 24 h [3]: 637
- Activity (Chikungunya virus [15]): Active; Highest Inhibitory Effect Observed
- IC50 (Chikungunya virus [5]): 0.304 µM
- Activity (Vero): > 90%
- CC50 [6]: 194 µM

SMILES: COc1c(OCc2cn(-c3ccc(C)cc3C)nn2)cc2oc3cc4c(c(O)c3c(=O)c2c1CC=C(C)C)C=CC(C)(C)O4
- Activity (Vero): > 90%

SMILES: CC(C)=CCc1c(O)cc2oc3cc(O)c4c(c3c(=O)c2c1O)CCC(C)(C)O4
- selectivity ratio at 24 h [3]: 2.79
- IC50 (Chikungunya virus [5]): 4.1 µM
- Activity (Vero): > 90%
- CC50 [6]: 11.4 µM
- Activity (Chikungunya virus [16]): 7.43 log10FFU/ml

SMILES: COc1c(OCC#Cc2ccccc2Br)cc2oc3cc4c(c(O)c3c(=O)c2c1CC=C(C)C)C=CC(C)(C)O4
- Activity (Vero): > 90%

SMILES: COc1c(OCC#Cc2ccc(C#N)cc2)cc2oc3cc4c(c(O)c3c(=O)c2c1CC=C(C)C)C=CC(C)(C)O4
- Activity (Vero): > 90%

SMILES: COc1c(OCc2cn(-c3c(C)cc(C)cc3C)nn2)cc2oc3cc4c(c(O)c3c(=O)c2c1CC=C(C)C)C=CC(C)(C)O4
- Activity (Vero): < 90%

SMILES: COc1c(OCC(=O)N2CCN(S(=O)(=O)c3ccc(C)cc3)CC2)cc2oc3cc4c(c(O)c3c(=O)c2c1CC=C(C)C)C=CC(C)(C)O4
- Activity (Vero): > 90%
